What follows are compounds tested against vaccinia virus D10 decapping enzyme (His-tagged, WT) (Vaccinia virus, UniProt P04312) (assay: biochemical). Conditions: not given.
Assay type: biochemical

**Q.** Which IC50 does the source give for NC(=O)c1ncn([C@@H]2O[C@H](CO[P@@](=O)(O)O[P@](=O)(O)OP(=O)(O)O)[C@@H](O)[C@H]2O)n1 [Ribavirin triphosphate] here?
**A.** > 200 µM

**Q.** And the Ki?
**A.** > 0.8 µM

**Q.** For O=P(O)(O)OP(=O)(O)O [pyrophosphate], which “Inhibition of the decapping reaction (in words)” value (“Inhibition” for short) is on record?
**A.** unable to inhibit

**Q.** With Nc1nc2nc[nH]c2c(=O)[nH]1 [Guanine] as the compound, how does the IC50 read?
**A.** > 200 µM

**Q.** And the “Inhibition” value?
**A.** did not affect the decapping reaction

**Q.** What about the Ki of the same compound?
**A.** > 0.8 µM

**Q.** O=c1ccn([C@@H]2O[C@H](COP(=O)(O)OP(=O)(O)OP(=O)(O)O)[C@@H](O)[C@H]2O)c(=O)[nH]1 [UTP] was tested. Which “Inhibition” value did it give?
**A.** no inhibition

**Q.** With Cc1cn([C@@H]2O[C@H](COP(=O)(O)OP(=O)(O)OP(=O)(O)O)[C@@H](O)[C@H]2O)c(=O)[nH]c1=O [5-methyl-UTP] as the compound, how does the “Inhibition” value read?
**A.** unable to affect the activity of the enzyme

**Q.** How did the “Inhibition” value turn out when Nc1ccn([C@@H]2O[C@H](COP(=O)(O)OP(=O)(O)OP(=O)(O)O)[C@@H](O)[C@H]2O)c(=O)n1 [CTP] was run?
**A.** no inhibition

**Q.** For Cc1cn([C@@H]2O[C@H](COP(=O)(O)OP(=O)(O)OP(=O)(O)O)[C@@H](O)[C@H]2O)c(=O)nc1N [5-methyl-CTP], which “Inhibition” value is on record?
**A.** unable to affect the activity of the enzyme

**Q.** With Nc1ccn([C@@H]2O[C@H](COP(=O)(O)OP(=O)(O)O)[C@@H](O)[C@H]2O)c(=O)n1 [CDP] as the compound, how does the “Inhibition” value read?
**A.** unable to affect the activity of the enzyme

**Q.** For O=c1ccn([C@@H]2O[C@H](COP(=O)(O)OP(=O)(O)O)[C@@H](O)[C@H]2O)c(=O)[nH]1 [UDP], which “Inhibition” value is on record?
**A.** unable to affect the activity of the enzyme

**Q.** For O=P(O)(O)OP(=O)(O)OP(=O)(O)O [tripolyphosphate], which “Inhibition” value is on record?
**A.** unable to inhibit

Same assay, conditions: 0.25 h, read-out: Relative decapping activity (%) (100 µM analog)

**Q.** For NC(=O)c1ncn([C@@H]2O[C@H](CO[P@@](=O)(O)O[P@](=O)(O)OP(=O)(O)O)[C@@H](O)[C@H]2O)n1 [Ribavirin triphosphate], which remaining activity at 100 µM is on record?
**A.** 96 ± 3%

**Q.** Nc1nc2nc[nH]c2c(=O)[nH]1 [Guanine] was tested. Which remaining activity at 100 µM did it give?
**A.** 92 ± 4%

From article PMC2995054 (Nucleic Acids Research, 2010)
